# Source: US20240317712A1, “[…] DERIVATIVES AS INHIBITORS OF […]-PEPTIDE CYCLOTRANSFERASE AND […]-PEPTIDE CYCLOTRANSFERASE LIKE PROTEIN” (Boehringer Ingelheim International GmbH, priority 2023, published 2024)
# How the values were obtained:
# QPCTL = molecular target: T1, QPCTL (Homo sapiens, UniProt Q9NXS2); experiment: Assay A: biochemical QPCTL activity assay (MALDI-TOF MS, CD47 peptide substrate); conditions: 0.5 nM enzyme, 10 μM CD47 peptide substrate; read-out: Inhibition of QPCTL: IC50
# T1 construct: made in house
# T1 sequence (Q9NXS2 whole entry): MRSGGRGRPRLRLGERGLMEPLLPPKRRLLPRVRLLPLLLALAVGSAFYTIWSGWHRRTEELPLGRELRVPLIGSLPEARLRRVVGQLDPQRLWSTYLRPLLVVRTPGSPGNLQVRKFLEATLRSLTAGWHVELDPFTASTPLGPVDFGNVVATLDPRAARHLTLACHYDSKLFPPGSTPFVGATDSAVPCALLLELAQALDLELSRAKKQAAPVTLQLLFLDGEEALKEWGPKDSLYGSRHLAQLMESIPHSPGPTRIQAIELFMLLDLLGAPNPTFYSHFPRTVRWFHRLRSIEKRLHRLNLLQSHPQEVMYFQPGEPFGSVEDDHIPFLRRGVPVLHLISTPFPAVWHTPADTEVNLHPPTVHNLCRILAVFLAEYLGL
# Description: (§1) QPCT or QPCTL dependent conversion of N-terminal glutamine to pyroglutamate of CD47 was monitored via MALDI-TOF MS. Test compounds were dissolved in 100% DMSO and serially diluted into clear 1,536-well microtiter plates. Enzymatic reactions were set up in assay buffer containing 20 mM Tris pH 7.5, 0.1 mM TCEP, 0.01% BSA, and 0.001% Tween20. […] The plates were incubated for 10 min in a humidified incubator at 24° C. Subsequently, 2.5 µL of CD47 peptide substrate surrogate (^19[…]^33) was added to each well (final concentration: 10 μM for QPCTL/20 μM for QPCT). The plates were mixed for 30 sec at 1,000 rpm and subsequently incubated for 40 min in a humidified incubator at 24° C. […] The plates were sealed with an adhesive foil, mixed for 30 s at 1,000 rpm and stored at room temperature until preparation of the MALDI target plates. MALDI target plates were prepared as described previously. […] QPCT or QPCTL activity was monitored by calculating the ratio between product and internal standard signals followed by normalization to high (100% activity) and low (0% activity) controls. Determination of compound potencies was obtained by fitting the dose-response data to a four-parameter logistical equation.
# QPCT = molecular target: T2, QPCT (Homo sapiens, UniProt Q16769); experiment: Assay A: biochemical QPCT activity assay (MALDI-TOF MS, CD47 peptide substrate); conditions: 0.5 nM enzyme, 20 μM CD47 peptide substrate; read-out: Inhibition of QPCT: IC50
# T2 construct: purchased Origine (so in the source)
# T2 sequence (Q16769 29-361): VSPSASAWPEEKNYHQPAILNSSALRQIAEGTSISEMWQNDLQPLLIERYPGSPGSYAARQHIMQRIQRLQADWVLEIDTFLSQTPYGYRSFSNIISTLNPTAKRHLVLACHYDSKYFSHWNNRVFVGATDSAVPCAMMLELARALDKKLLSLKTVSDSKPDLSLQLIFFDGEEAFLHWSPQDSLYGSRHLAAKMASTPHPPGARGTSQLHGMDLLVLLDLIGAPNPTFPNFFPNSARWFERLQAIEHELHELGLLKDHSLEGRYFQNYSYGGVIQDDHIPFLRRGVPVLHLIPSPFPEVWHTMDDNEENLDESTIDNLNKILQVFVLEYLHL
# Description: as §1
# [1] = test system: SIRPα signalling induced by Raji cells; experiment: Assay B: SIRPα signalling assay using Raji cells; format: cell-based; conditions: Homo sapiens, 48 h compound incubation, Jurkat PathHunter SIRPaV1 reporter cells, read-out: Inhibition of SIRPα signalling induced by Raji cells: IC50
# Description: (§2) Two cell types are independently used: the Raji cell line (lymphoblast-like human cell line derived from B lymphocytes from a Burkitt's lymphoma patient in 1963) and A549 cells (adenocarcinoma human alveolar basal epithelial cells).
# (§3) Test compounds were dissolved in 100% DMSO and serially diluted into a white 384-well microtiter cell culture plate (PerkinElmer #60076780 in case of Raji assay; PDL-coated plates Greiner #781945 in case of A549 assay), 5000 Raji cells (ATCC #CC86) or 5000 A549 cells (ATCC #CCL-185) in Assay Complete Cell Plating reagent 30 (DiscoverX 93-0563R30B) were added per well. The assay plate was incubated for 48 h at 37° C., 95% humidity and 5% CO2. 15000 reporter cells (Jurkat PathHunter SIRPaV1, DiscoverX #93-1135C19) were added to each well, and the plate was incubated for 5 h at 37° C., 95% humidity and 5% CO2. Bioassay reagent 1 of the PathHunter Bioassay detection kit (DiscoverX 93-0001) was added to each well of the plate using a multichannel pipette followed by a 15 min incubation at room temperature. Afterwards bioassay reagent 2 was added followed by 60 min incubation at room temperature (incubation in the dark). The analysis of the data was performed using the luminescence signal generated by beta-galactosidase in the PathHunter reporter cell line. The luminescence measurement was done using a Pherastar Multi-Mode Reader. Dose-response curves & IC50 data were calculated with 4-parameter sigmoidal dose response formula.
# [2] = test system: SIRPα signalling induced by A549 cells; experiment: Assay B: SIRPα signalling assay using A549 cells; format: cell-based; conditions: Homo sapiens, 48 h compound incubation, Jurkat PathHunter SIRPaV1 reporter cells, read-out: Inhibition of SIRPα signalling induced by A549 cells: IC50
# Description: as §2, §3
# [3] = Assay C: Permeability in CACO-2 cells; format: in vitro ADME; conditions: human, pH 7.2; for efflux ratio: Caco-2, permeability B−A/permeability A−B; for Papp A→B: Caco-2, apical to basolateral
# Description: Caco-2 cells (1-2×10^5 cells/1 cm^2 area) are seeded on filter inserts (Costar transwell polycarbonate or PET filters, 0.4 μm pore size) and cultured (DMEM) for 10 to 25 days. Compounds are dissolved in appropriate solvent (like DMSO, 1-20 mM stock solutions). […] The transport solution (TL) is applied to the apical or basolateral donor side for measuring A-B or B-A permeability (3 filter replicates), respectively. Samples are collected at the start and end of experiment from the donor and at various time intervals for up to 2 hours also from the receiver side for concentration measurement by HPLC-MS/MS or scintillation counting. Sampled receiver volumes are replaced with fresh receiver solution.
# Efflux ratio (ER)=permeability B−A/permeability A−B
Compound,IC50 (QPCTL) [nM],IC50 (QPCT) [nM],IC50 [1] [nM],IC50 [2] [nM],efflux ratio [3],Papp A→B [3] [×10⁻⁶ cm/s]
Cn1cnnc1C1(F)CCN(c2c(C#N)cc(C(F)(F)F)cc2-c2cnc3nn(C(C)(C)C)cc3c2)CC1 [Example 1],1,1,5,11,3.2,25
Cn1cnnc1C1(F)CCN(c2c(C#N)cc(C(F)(F)F)cc2-c2cnc3nc(C(C)(C)C)nn3c2)CC1 [Example 2],2,1,14,7,6.9,8.9
Cn1cnnc1C1CCN(c2c(C#N)cc(C(F)(F)F)cc2-c2ccc(F)nc2)CC1 [Example 3],3,12,19,12,10.4,9
Cn1cnnc1C1(F)CCN(c2c(C#N)cc(C(F)(F)F)cc2-c2ccc(F)nc2)CC1 [Example 4],2,4,17,12,1.3,40.5
Cn1cnnc1C1(F)CCN(c2c(C#N)cc(C(F)(F)F)cc2-c2ccnnc2)CC1 [Example 5],2,3,19,21,10.3,3.3
Cn1cnnc1C1(F)CCN(c2c(C#N)cc(F)cc2-c2ccc(F)nc2)CC1 [Example 6],3,4,47,16,1.6,44
Cn1cnnc1C1CCN(c2c(C#N)cc(F)cc2-c2ccc(F)nc2)CC1 [Example 7],2,10,48,18,2.1,24
COc1ccc(C#N)c(N2CCC(c3nncn3C)CC2)c1-c1ccc(F)nc1 [Example 8],1,3,44,11,4.4,8.5
COc1ccc(C#N)c(N2CCC(F)(c3nncn3C)CC2)c1-c1ccc(F)nc1 [Example 9],1,1,35,6,1.9,28
CC(C)Oc1ccc(C#N)c(N2CCC(c3nncn3C)CC2)c1-c1ccc(F)nc1 [Example 10],1,1,52,9,2.4,30
Cn1cnnc1C1CCN(c2c(C#N)ccc(OCC3CC3)c2-c2ccc(F)nc2)CC1 [Example 11],1,2,44,43,3.2,28
Cn1cnnc1C1CCN(c2c(C#N)ccc(OCc3ccccc3)c2-c2ccc(F)nc2)CC1 [Example 12],1,1,20,14,2.6,19
Cn1cnnc1C1CCN(c2c(C#N)ccc(OC(F)F)c2-c2ccc(F)nc2)CC1 [Example 13],2,2,96,27,3.6,9.1
Cn1cnnc1C1CCN(c2c(-c3ccc(F)nc3)ccc(F)c2C#N)CC1 [Example 14],2,11,124,24,6.7,9.6
COC(=O)c1cc(C#N)c(N2CCC(c3nncn3C)CC2)c(-c2ccc(F)nc2)c1 [Example 15],3,12,312,218,9.2,5.3
Cn1cnnc1C1CCN(c2c(C#N)cc(Cl)cc2-c2ccc(F)nc2)CC1 [Example 16],2,8,30,18,3.3,23
Cn1cnnc1C1CCN(c2c(C#N)cc(Cl)cc2-c2cnc3nn(C(C)(C)C)cc3c2)CC1 [Example 17],1,1,17,5,21.2,2.5
Cn1cnnc1C1(F)CCN(c2c(C#N)cc(Cl)cc2-c2ccc(F)nc2)CC1 [Example 18],2,4,36,24,1,66
Cn1cnnc1C1(F)CCN(c2c(C#N)cc(Cl)cc2-c2cnc3nn(C(C)(C)C)cc3c2)CC1 [Example 19],1,1,9,9,4.5,18
COc1ccc(-c2ccc(F)nc2)c(N2CCC(c3nncn3C)CC2)c1C#N [Example 20],1,4,102,24,12.5,5.6
Cn1cnnc1C1CCN(c2c(C#N)cc(C#N)cc2-c2ccc(F)nc2)CC1 [Example 21],5,25,324,280,39.1,1.1
Cn1cnnc1C1(F)CCN(c2c(C#N)cc(C(F)(F)F)cc2-c2cnc3nc(C(F)(F)F)cn3c2)CC1 [Example 22],1,1,17,39,10.5,2.1
COc1cc(-c2cc(C(F)(F)F)cc(C#N)c2N2CCC(F)(c3nncn3C)CC2)cnn1 [Example 23],21,14,278,145,4.3,13
Cn1cnnc1C1(F)CCN(c2c(C#N)cc(F)cc2-c2cnc3nn(C(C)(C)C)c(Cl)c3c2)CC1 [Example 24],2,1,16,13,1.7,46
Cn1cnnc1C1(F)CCN(c2c(C#N)cc(F)cc2-c2cnc3nn(C(C)(C)C)cc3c2)CC1 [Example 25],2,1,23,10,9.7,7.5
Cn1cnnc1C1(F)CCN(c2c(-c3cnc4nn(C(C)(C)C)cc4c3)ccc(OCCC(C)(C)O)c2C#N)CC1 [Example 34],1,–,36,73,–,–
"Nc1ncc(C2CCN(c3ncccc3-c3ccc(F)nc3)CC2)s1 [Prior art Compound 1094, reference compound]",111,1710,–,3060,–,–
"Nc1nnc(C2CCN(c3ncccc3-c3ccc(F)nc3)CC2)s1 [Prior art Compound 1095, reference compound]",13,260,–,–,–,–
"Cn1cnnc1C1CCN(c2ncccc2-c2cccnc2)CC1 [SEN180, reference compound]",–,176,–,–,–,–
